Measurements published in US8192962B2, “Processes for detecting toxic substances” (Daikin Industries, Ltd., priority 2001, dated 2012).

System: Energy system protein genes
Test: DNA chip mRNA expression in yeast, energy system protein genes (Table 4)
Type: cell-based, Saccharomyces cerevisiae S288C
Summary of the method: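 S. cerevisiae S288C grown at 25° C. in YPD to log phase, then exposed 2 h to a toxicant at a growth-inhibiting, non-lethal concentration; untreated cells as control. Poly(A) mRNA reverse-transcribed with Cy3-dUTP or Cy5-dUTP, hybridized >12 h at 65° C. to whole-genome yeast DNA chip; value = fluorescence ratio treated/untreated.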

COc1cc(CNC(=O)CCCCC=CC(C)C)ccc1O [(12), 8-methyl-N-vanillyl-6-nonenamide]
The level of expressed mRNA in the presence of chemical substance/The level of expressed mRNA in the absence of chemical substance (yeast gene YJR048W): 0.8 | The level of expressed mRNA in the presence of chemical substance/The level of expressed mRNA in the absence of chemical substance (yeast gene YJR121W, cells incubated two hours with the chemical substance): 0.8 | The level of expressed mRNA in the presence of chemical substance/The level of expressed mRNA in the absence of chemical substance (yeast gene YJR155W): 1.0 | The level of expressed mRNA in the presence of chemical substance/The level of expressed mRNA in the absence of chemical substance (yeast gene YKL016C, cells incubated two hours with the chemical substance): 1.0 | The level of expressed mRNA in the presence of chemical substance/The level of expressed mRNA in the absence of chemical substance (yeast gene YKL060C, cells incubated two hours with the chemical substance): 1.3 | The level of expressed mRNA in the presence of chemical substance/The level of expressed mRNA in the absence of chemical substance (yeast gene YKL141W, cells incubated two hours with the chemical substance): 0.8 | The level of expressed mRNA in the presence of chemical substance/The level of expressed mRNA in the absence of chemical substance (yeast gene YKL148C, cells incubated two hours with the chemical substance): 0.8 | The level of expressed mRNA in the presence of chemical substance/The level of expressed mRNA in the absence of chemical substance (yeast gene YKR009C, cells incubated two hours with the chemical substance): 1.0 | The level of expressed mRNA in the presence of chemical substance/The level of expressed mRNA in the absence of chemical substance (yeast gene YKR058W, cells incubated two hours with the chemical substance, 25° C., YPD medium): 0.9 | The level of expressed mRNA in the presence of chemical substance/The level of expressed mRNA in the absence of chemical substance (yeast gene YKR097W): 1.8 | The level of expressed mRNA in the presence of chemical substance/The level of expressed mRNA in the absence of chemical substance (yeast gene YLL041C, cells incubated two hours with the chemical substance): 0.8 | The level of expressed mRNA in the presence of chemical substance/The level of expressed mRNA in the absence of chemical substance (yeast gene YLR038C, cells incubated two hours with the chemical substance): 0.6 | The level of expressed mRNA in the presence of chemical substance/The level of expressed mRNA in the absence of chemical substance (yeast gene YLR044C, cells incubated two hours with the chemical substance): 1.4 | The level of expressed mRNA in the presence of chemical substance/The level of expressed mRNA in the absence of chemical substance (yeast gene YLR134W, cells incubated two hours with the chemical substance): 1.2 | The level of expressed mRNA in the presence of chemical substance/The level of expressed mRNA in the absence of chemical substance (yeast gene YLR258W, cells incubated two hours with the chemical substance): 0.9 | The level of expressed mRNA in the presence of chemical substance/The level of expressed mRNA in the absence of chemical substance (yeast gene YLR284C, cells incubated two hours with the chemical substance): 0.6 | The level of expressed mRNA in the presence of chemical substance/The level of expressed mRNA in the absence of chemical substance (yeast gene YLR295C, cells incubated two hours with the chemical substance, 25° C., YPD medium): 0.5 | The level of expressed mRNA in the presence of chemical substance/The level of expressed mRNA in the absence of chemical substance (yeast gene YLR304C, cells incubated two hours with the chemical substance): 1.0 | The level of expressed mRNA in the presence of chemical substance/The level of expressed mRNA in the absence of chemical substance (yeast gene YLR345W): 1.6 | The level of expressed mRNA in the presence of chemical substance/The level of expressed mRNA in the absence of chemical substance (yeast gene YLR354C, cells incubated two hours with the chemical substance): 1.2 | The level of expressed mRNA in the presence of chemical substance/The level of expressed mRNA in the absence of chemical substance (yeast gene YLR377C, cells incubated two hours with the chemical substance): 0.6 | The level of expressed mRNA in the presence of chemical substance/The level of expressed mRNA in the absence of chemical substance (yeast gene YLR395C, cells incubated two hours with the chemical substance): 0.6 | The level of expressed mRNA in the presence of chemical substance/The level of expressed mRNA in the absence of chemical substance (yeast gene YML054C): 1.8 | The level of expressed mRNA in the presence of chemical substance/The level of expressed mRNA in the absence of chemical substance (yeast gene YML087C): 0.8 | The level of expressed mRNA in the presence of chemical substance/The level of expressed mRNA in the absence of chemical substance (yeast gene YML120C, cells incubated two hours with the chemical substance): 0.9 | The level of expressed mRNA in the presence of chemical substance/The level of expressed mRNA in the absence of chemical substance (yeast gene YML129C, cells incubated two hours with the chemical substance): 0.8 | The level of expressed mRNA in the presence of chemical substance/The level of expressed mRNA in the absence of chemical substance (yeast gene YMR073C, cells incubated two hours with the chemical substance): 0.8 | The level of expressed mRNA in the presence of chemical substance/The level of expressed mRNA in the absence of chemical substance (yeast gene YMR118C): 0.8 | The level of expressed mRNA in the presence of chemical substance/The level of expressed mRNA in the absence of chemical substance (yeast gene YMR205C, cells incubated two hours with the chemical substance): 1.1 | The level of expressed mRNA in the presence of chemical substance/The level of expressed mRNA in the absence of chemical substance (yeast gene YMR261C, cells incubated two hours with the chemical substance): 0.9 | The level of expressed mRNA in the presence of chemical substance/The level of expressed mRNA in the absence of chemical substance (yeast gene YMR267W, cells incubated two hours with the chemical substance, 25° C., YPD medium): 0.8 | The level of expressed mRNA in the presence of chemical substance/The level of expressed mRNA in the absence of chemical substance (yeast gene YMR323W, cells incubated two hours with the chemical substance): 1.2 | The level of expressed mRNA in the presence of chemical substance/The level of expressed mRNA in the absence of chemical substance (yeast gene YNL071W): 1.3 | The level of expressed mRNA in the presence of chemical substance/The level of expressed mRNA in the absence of chemical substance (yeast gene YNL202W, cells incubated two hours with the chemical substance): 0.9 | The level of expressed mRNA in the presence of chemical substance/The level of expressed mRNA in the absence of chemical substance (yeast gene YNL241C): 2.0 | The level of expressed mRNA in the presence of chemical substance/The level of expressed mRNA in the absence of chemical substance (yeast gene YNL331C): 0.9 | The level of expressed mRNA in the presence of chemical substance/The level of expressed mRNA in the absence of chemical substance (yeast gene YOL086C, cells incubated two hours with the chemical substance): 1.3 | The level of expressed mRNA in the presence of chemical substance/The level of expressed mRNA in the absence of chemical substance (yeast gene YOL165C): 0.8 | The level of expressed mRNA in the presence of chemical substance/The level of expressed mRNA in the absence of chemical substance (yeast gene YOR142W, cells incubated two hours with the chemical substance): 0.8 | The level of expressed mRNA in the presence of chemical substance/The level of expressed mRNA in the absence of chemical substance (yeast gene YOR178C, cells incubated two hours with the chemical substance): 1.7 | The level of expressed mRNA in the presence of chemical substance/The level of expressed mRNA in the absence of chemical substance (yeast gene YOR388C, cells incubated two hours with the chemical substance): 0.7 | The level of expressed mRNA in the presence of chemical substance/The level of expressed mRNA in the absence of chemical substance (yeast gene YPL031C, cells incubated two hours with the chemical substance): 0.8 | The level of expressed mRNA in the presence of chemical substance/The level of expressed mRNA in the absence of chemical substance (yeast gene YPL061W, cells incubated two hours with the chemical substance): 1.0 | The level of expressed mRNA in the presence of chemical substance/The level of expressed mRNA in the absence of chemical substance (yeast gene YPL088W): 3.6 | The level of expressed mRNA in the presence of chemical substance/The level of expressed mRNA in the absence of chemical substance (yeast gene YPL171C): 1.4 | The level of expressed mRNA in the presence of chemical substance/The level of expressed mRNA in the absence of chemical substance (yeast gene YPL240C): 0.8 | The level of expressed mRNA in the presence of chemical substance/The level of expressed mRNA in the absence of chemical substance (yeast gene YPL262W, cells incubated two hours with the chemical substance): 1.1 | The level of expressed mRNA in the presence of chemical substance/The level of expressed mRNA in the absence of chemical substance (yeast gene YPL275W, cells incubated two hours with the chemical substance): 0.6 | The level of expressed mRNA in the presence of chemical substance/The level of expressed mRNA in the absence of chemical substance (yeast gene YPL276W, cells incubated two hours with the chemical substance): 0.6 | The level of expressed mRNA in the presence of chemical substance/The level of expressed mRNA in the absence of chemical substance (yeast gene YPR048W, cells incubated two hours with the chemical substance): 0.8 | The level of expressed mRNA in the presence of chemical substance/The level of expressed mRNA in the absence of chemical substance (yeast gene YPR184W, cells incubated two hours with the chemical substance): 1.4
